The record followed here is patent US12397056B2, “System for inducing sonoporation of a drug into cancer cells and method thereof” (Freedom Waves S.R.L, priority 2018, dated 2025).

“Also recorded” adds a separate entry of the source.

The subject of this experiment is human pancreatic adenocarcinoma cells. As to the kind of experiment: Internalization of fluoresceinamine (FA) into cancer cells (FIG. 7, CLSM). Type of experiment: cell-based. The text has this:
This example is relative to an experiment of internalization of a fluoresceinamine (FA). […] The tested experimental condition are: • FA-NO-US-NO DRUG: administration of FA alone, without administration of any drug and without administration of ultrasounds; • FA-LI-NO-US: administration of FA and liposomal irinotecan (LI), without administration of ultrasounds; • US-DC=12%: administration of FA and liposomal irinotecan (LI), with the simultaneous administration of pLINFUs with a duty cycle of 12%; • US-PRE-DC=1%: administration of pLINFUs with a duty cycle of 1% followed by subsequent administration of FA and liposomal irinotecan (LI); and • US-DC=1%: administration of FA and liposomal irinotecan (LI), with the simultaneous administration of pLINFUs with a duty cycle of 1%.
In FIG. 7, it is graphically represented the FA Internalization (%), i.e. the percentage of FA measured after the removal of the […] liquid from the cell culture wells, i.e. the percentage of FA inside the cell. The results of the experiment of this example were also analyzed by Confocal Laser Scanning Microscopy (CLSM) after 2 hours of incubation. FIGS. 8a, 8b, 8c, 8d, 8e show the intake of the FA into human pancreatic adenocarcinoma cells, in the five aforementioned experimental conditions.
It can be explained with a greater chemical interaction between the polymeric chains of polyethylene glycol of the liposomal membrane and the FA.

For `Nc1ccc2c(c1)C(=O)OC21c2ccc(O)cc2Oc2cc(O)ccc21` [FA, fluoresceinamine], the “intake of the FA into cells (CLSM)” value by setting is: (FA-LI-NO-US: FA with liposomal irinotecan, no ultrasound, FIG. 8b) “greater fluorescence density is observed, but only at an extracellular perimembrane level”; (FA-NO-US-NO DRUG: FA alone, no drug, no ultrasound, 2 hours incubation, FIG. 8a) “not accumulated in the cells”; (US-DC=1%: FA with liposomal irinotecan, simultaneous pLINFU duty cycle 1%, FIG. 8e) “highest level of FA internalization”; (US-DC=12%: FA with liposomal irinotecan, simultaneous pLINFU duty cycle 12%, FIG. 8c) “the presence of FA inside the cells became evident”; (US-PRE-DC=1%: pLINFU duty cycle 1% followed by FA and liposomal irinotecan, FIG. 8d) “the presence of FA inside the cells became evident; also recorded: a certain grade of FA internalization is achieved”. For the setting “US-DC=1% compared with the other four conditions, FIG. 7”, the “FA Internalization (%)” value is “higher FA internalization %”.
